# In patent publication US11813276B2, “Compositions and methods for the treatment of AUD” (University of Southern California, priority 2020, dated 2023):
# What was measured:
# mice [1] = assay: Earlier ethanol drinking studies with avermectins given alone; type: in vivo; conditions: for time from administration to time of significant reduction of ethanol intake: avermectin alone
# From the text: The altered function or expression of central nervous system (CNS) genes has long been considered a significant factor in contributing to the behavioral phenotype of alcoholism. By profiling gene expression in rodent strains undergoing multiple drinking paradigms, researchers have begun to identify potential candidate genes and pathways that may impart novel mechanistic information that drives the neurobiology of alcoholism.
# mice [2] = conditions: cited from earlier work
SMILES,time from administration to time of significant reduction of ethanol intake (mice [1]),effect of chronic administration on the reduction of ethanol intake (tolerance) (mice [1]; chronic administration),"toxicity or addictive liabilities (mice [1]; chronic administration, ethanol drinking studies)","voluntary ethanol intake (mice [2]; IVM alone, doses between 2.5 mg/kg and 10 mg/kg, mice models (Yardlet et al., 2012))","ethanol intake (mice [2]; male and female mice, avermectin alone)","toxicity or addictive liabilities (mice [1]; mouse, in vivo)"
"CC[C@H](C)[C@H]1O[C@]2(CC[C@@H]1C)C[C@@H]1C[C@@H](C/C=C(\C)[C@@H](O[C@H]3C[C@H](OC)[C@@H](O[C@H]4C[C@H](OC)[C@@H](O)[C@H](C)O4)[C@H](C)O3)[C@@H](C)/C=C/C=C3\CO[C@@H]4[C@H](O)C(C)=C[C@@H](C(=O)O1)[C@]34O)O2 [IVM, ivermectin]",8 h,did not significantly alter the reduction of ethanol intake,nor was any measured or observed obvious increase in toxicity or addictive liabilities,significant reduction in the voluntary ethanol intake,significantly reduced ethanol intake,
"CO/N=C1\C[C@]2(C[C@@H]3C[C@@H](C/C=C(\C)C[C@@H](C)/C=C/C=C4\CO[C@@H]5[C@H](O)C(C)=C[C@@H](C(=O)O3)[C@]45O)O2)O[C@H](/C(C)=C/C(C)C)[C@H]1C [MOX, moxidectin]",4 h,,,,,nor was any measured or observed obvious increase in toxicity or addictive liabilities
